Target: P. vivax DHFR (dihydrofolate reductase) (Plasmodium vivax, UniProt O02604)
Assay: DHFR enzyme inhibition assay (supported by growth assay of yeast expressing PvDHFR)
Type: biochemical

Sequence of P. vivax DHFR (dihydrofolate reductase) (O02604 1-237): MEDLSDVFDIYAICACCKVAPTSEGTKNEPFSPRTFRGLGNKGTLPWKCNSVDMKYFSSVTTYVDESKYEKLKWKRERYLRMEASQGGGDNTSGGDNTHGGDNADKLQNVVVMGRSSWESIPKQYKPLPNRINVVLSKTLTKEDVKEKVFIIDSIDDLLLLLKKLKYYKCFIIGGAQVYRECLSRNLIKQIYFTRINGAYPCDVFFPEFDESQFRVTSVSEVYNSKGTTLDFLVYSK

CO[C@@H]1[C@H](OC(=O)NC(=O)CCl)CC[C@]2(CO2)[C@H]1[C@@]1(C)O[C@@H]1CC=C(C)C [TNP-470]
IC50: 160 nM

From PMC4345494, “Cheaper faster drug development validated by the repositioning of drugs against neglected tropical diseases” (Journal of the Royal Society Interface, 2015)
